Patent US8946478B2, “Benzamide derivative with anticancer activity and preparation method and use thereof” (Zhejiang Hisun Pharmaceutical Co., Ltd., priority 2010, dated 2015)

Experiments:
18 tumor cell strains = test: In vitro efficacy screening, summary over the tumor cell strains; assay type: cell-based, human; conditions: in vitro screening; for inhibitory effects on tumor cell proliferation (in words): BSI-201 as positive drug
Procedure: (§1) Human colon cancer cell strains (Colo205 and HCT-116), human breast cancer cell strains (MCF-7 and MDA-MB435), human lung cancer cell strains (A549, 95D and NCI460), human ovarian cancer cell strains (OVCAR-5, OVCAR-8, HO8910 and SKOV-3), human leukemia (HL-60 and K562), human prostate cancer (DU145 and BXPC-3), human uterine cancer (Hela), human pancreatic cancer (PANC-1), human hepatoma (HepG 2) were all obtained from ATCC. Colo205, HL-60, K562 cells were cultured in RPMI 1640 containing 2 mM/L glutamine, 10% FBS, 1.0 mM sodium pyruvate. HCT-116, MCF-7, A549, 95D, HO8910, NCI460, OVCAR-5, OVCAR-8, DU145, BXPC-3, Hela, PANC-1, HepG2 cells were cultured in DMEM containing 2 mM/L glutamine, 10% FBS. MDA-MB435 cells were cultured in L-15 containing 2 mM/L glutamine, 10% FBS. SKOV-3 cells were cultured in McCoy's containing 2 mM/L glutamine, 10% FBS. Colo205, HL-60 and K562 cells were seeded in 96-well plates, 150 μL/well and 8000 cells/well, and the 96-well plates were pre-incubated in an incubator at 37° C. with 5% CO2, 100% relative humidity for 24 hours. HCT-116, MCF-7, NCI460, OVCAR-5, OVCAR-8, Hela, HepG 2 and MDA-MB435 cells were seeded in 96-well plates, 5000 cells/well; A549, 95D, HO8910, DU145, BXPC-3, PANC-1 and SKOV-3 cells were seeded in 96-well plates, 10000 cells/well, and the 96-well plates were pre-incubated in an incubator at 37° C. with 5% CO2, 100% relative humidity for 24 hours, to allow the cells to adhere.
(§2) 50 μL of pre-cooled 50% (mass/volume) TCA was added into the time zero control wells for each cell strain to fix the cells. To other wells, 50 μL of various concentrations of compounds were added, and maintained for 48 h, wherein each drug concentration was in triplicate, and there were blank control wells (cell culture medium without cells), drug-free control wells (with no drugs but the same volume of complete medium) and positive drug BSI-201 control wells, and the plates were incubated in an incubator at 37° C. with 5% CO2, full humidity (100% relative humidity) for 48 hours
(§3) 50 μL pre-cooled 50% (mass/volume) TCA was added onto the surface of the culture medium to fix the cells, which was then placed at 4° C. for 1 h. The supernatant was removed and each well was washed with deionized water for 5 times to remove TCA, serum proteins, etc. After dried in the air, about 100 μL enough amount of 0.4% SRB (formulated with 1% acetic acid) was added into each well, and was placed at room temperature for 20 to 30 min. Liquid in each well was discarded and each well was rapidly washed with 1% acetic acid for five times, to remove unbound dye until the unbound dye was completely rinsed clean. After dried in the air until the moisture was invisible, each well was added 200 μL Tris base to dissolve, shaken on a plate oscillator for 5 min or mixed by beating up and down with a pipette tip, and then measured on the multi-function instruction (M5 Detection System, MD Group Ltd.) with a detection wavelength of 515 nm, zero adjusted with 690 nm blank control.
(§4) The dose-response curve was plotted by XL-fit to determine the GI50 value.

[1] = test system: human lung cancer cell strain 95D; test: In vitro SRB tumor cell growth inhibition (GI50); assay type: cell-based; conditions: 48 h, 95D cells
Procedure: as §1, §2, §3, §4

[2] = test system: human prostate cancer DU145; test: In vitro SRB tumor cell growth inhibition (GI50); assay type: cell-based; conditions: DU145 cells
Procedure: as §1, §2, §3, §4

[3] = test system: human breast cancer cell strain MCF-7; test: In vitro SRB tumor cell growth inhibition (GI50); assay type: cell-based; conditions: MCF-7 cells
Procedure: as §1, §2, §3, §4

human leukemia HL-60 = test: In vitro SRB tumor cell growth inhibition (GI50); assay type: cell-based; conditions: HL-60 cells
Procedure: as §1, §2, §3, §4

[4] = test system: human colon cancer cell strain Colo205; test: In vitro SRB tumor cell growth inhibition (GI50); assay type: cell-based; conditions: Colo 205 cells, 48 h
Procedure: as §1, §2, §3, §4

human leukemia K562 = test: In vitro SRB tumor cell growth inhibition (GI50); assay type: cell-based; conditions: K562 cells
Procedure: as §1, §2, §3, §4

human hepatoma HepG 2 = test: In vitro SRB tumor cell growth inhibition (GI50); assay type: cell-based; conditions: HepG2, HepG 2 cells, 48 h
Procedure: as §1, §2, §3, §4

[5] = test system: human prostate cancer BXPC-3; test: In vitro SRB tumor cell growth inhibition (GI50); assay type: cell-based; conditions: BXPC-3 cells, 48 h
Procedure: as §1, §2, §3, §4

[6] = test system: human uterine cancer Hela; test: In vitro SRB tumor cell growth inhibition (GI50); assay type: cell-based; conditions: 48 h, Hela cells
Procedure: as §1, §2, §3, §4

[7] = test system: human breast cancer cell strain MDA-MB435; test: In vitro SRB tumor cell growth inhibition (GI50); assay type: cell-based; conditions: Homo sapiens, MDA-MB-435, 48 h, MDA-MB435 cells
Procedure: as §1, §2, §3, §4

[8] = test system: human ovarian cancer cell strain OVCAR-5; test: In vitro SRB tumor cell growth inhibition (GI50); assay type: cell-based; conditions: OVCAR-5 cells, 48 h
Procedure: as §1, §2, §3, §4

[9] = test system: human lung cancer cell strain A549; test: In vitro SRB tumor cell growth inhibition (GI50); assay type: cell-based; conditions: A549 cells, 48 h
Procedure: as §1, §2, §3, §4

[10] = test system: human ovarian cancer cell strain SKOV-3; test: In vitro SRB tumor cell growth inhibition (GI50); assay type: cell-based; conditions: SK-OV-3, SKOV-3 cells, 48 h
Procedure: as §1, §2, §3, §4

[11] = test system: human pancreatic cancer PANC-1; test: In vitro SRB tumor cell growth inhibition (GI50); assay type: cell-based; conditions: PANC-1 cells
Procedure: as §1, §2, §3, §4

[12] = test system: human ovarian cancer cell strain HO8910; test: In vitro SRB tumor cell growth inhibition (GI50); assay type: cell-based; conditions: HO-8910, HO8910 cells, 48 h
Procedure: as §1, §2, §3, §4

[13] = test system: human ovarian cancer cell strain OVCAR-8; test: In vitro SRB tumor cell growth inhibition (GI50); assay type: cell-based; conditions: Homo sapiens, OVCAR-8, 48 h, OVCAR-8 cells
Procedure: as §1, §2, §3, §4

[14] = test system: human lung cancer cell strain NCI-460; test: In vitro SRB tumor cell growth inhibition (GI50); assay type: cell-based; conditions: NCI-460 cells
Procedure: as §1, §2, §3, §4

[15] = test system: human colon cancer cell strain HCT-116; test: In vitro SRB tumor cell growth inhibition (GI50); assay type: cell-based; conditions: HCT-116 cells
Procedure: as §1, §2, §3, §4

| GI50 ([1]; Homo sapiens, 95-D) [µM] | GI50 ([2]; Homo sapiens, DU-145, 48 h) [µM] | GI50 ([3]; Homo sapiens, MCF7, 48 h) [µM] | GI50 (human leukemia HL-60; Homo sapiens, HL-60, 48 h) [µM] | GI50 [4] [µM] | GI50 (human leukemia K562; Homo sapiens, K562, 48 h) [µM] | GI50 (human hepatoma HepG 2) [µM] | GI50 [5] [µM] | GI50 ([6]; Homo sapiens, HeLa) [µM] | GI50 [7] [µM] | GI50 [8] [µM] | GI50 [9] [µM] | GI50 [10] [µM] | GI50 ([11]; Homo sapiens, PANC-1, 48 h) [µM] | GI50 [12] [µM] | GI50 [13] [µM] | GI50 ([15]; Homo sapiens, HCT-116, 48 h) [µM] | Compound | efficacy in inhibition of tumor cell proliferation, graded in words against I-1 (18 tumor cell strains) | inhibitory effects on tumor cell proliferation (in words) (18 tumor cell strains) | GI50 ([14]; Homo sapiens, NCI-460, 48 h) [µM] | further results |
| --- | --- | --- | --- | --- | --- | --- | --- | --- | --- | --- | --- | --- | --- | --- | --- | --- | --- | --- | --- | --- | --- |
| 3.62 | 3.31 | 2.08 | 2.02 | 7.03 | 2.8 | 11.3 | 7.42 | 7.1 | 11.7 | 4.24 | 8.04 | 3.81 | 13.7 | 3.44 | 14.1 | – | C#Cc1ccc(C(=O)NC(=O)OC)cc1[N+](=O)[O-] [Compound I-2, N-methoxycarbonyl-4-ethynyl-3-nitrobenzamide] | slightly lower than that of I-1 | have inhibitory effects on tumor cell proliferation | 33.8 | – |
| 4.38 | 3.79 | 6.81 | 3.2 | 4.32 | 7.03 | 12 | 7.5 | 9.9 | 4.16 | – | 25 | 15 | 2.48 | 4.03 | 16.3 | 5.6 | C#Cc1ccc(C(=O)NC(=O)OCC)cc1[N+](=O)[O-] [Compound I-3, N-ethoxycarbonyl-4-ethynyl-3-nitrobenzamide] | slightly lower than that of I-1 | have inhibitory effects on tumor cell proliferation | 37.3 | – |
| – | – | – | – | 9.09 | 20.2 | – | – | – | – | – | – | – | – | – | – | – | C#Cc1ccc(C(=O)NC(=O)OC(C)C)cc1[N+](=O)[O-] [Compound I-6, N-isopropoxycarbonyl-4-ethynyl-3-nitrobenzamide] | good effects on inhibition of tumor cell proliferation | have inhibitory effects on tumor cell proliferation | – | – |
| 16.8 | 4.17 | 20.1 | 1.99 | 2.79 | 4.52 | 4.27 | 4.9 | 6.7 | 1.01 | 20.9 | 17.6 | 10.3 | 19.9 | 5 | 3.64 | 11.2 | C#Cc1ccc(C(=O)N(CC)CC)cc1[N+](=O)[O-] [Compound I-14, N,N-diethyl-4-ethynyl-3-nitrobenzamide] | slightly lower than that of I-1 | have inhibitory effects on tumor cell proliferation | 20.9 | – |
| 10.3 | 2.99 | 10.6 | 2.62 | 3.21 | 2.59 | 5.85 | 4.79 | 4.43 | 2.76 | 16.1 | 12.2 | 8.4 | 12.4 | 3.34 | 4.6 | 5.06 | C#Cc1ccc(C(=O)NCC)cc1[N+](=O)[O-] [Compound I-17, N-ethyl-4-ethynyl-3-nitrobenzamide] | slightly lower than that of I-1 | have inhibitory effects on tumor cell proliferation | 14 | – |
| – | – | – | – | – | – | – | – | – | – | – | 56.8 | 31.3 | – | – | – | – | C#Cc1ccc(C(=O)N2CCNCC2)cc1[N+](=O)[O-] [Compound I-23, (4-ethynyl-3-nitrophenyl)(piperazin-1-yl)ketone] | slightly lower than that of I-1 | have inhibitory effects on tumor cell proliferation | – | GI50 [1]: 10.9 µM; GI50 ([2]; 48 h): 3.44 µM; GI50 ([3]; 48 h): 9.24 µM; GI50 (human leukemia HL-60; 48 h): 12.3 µM; GI50 (human leukemia K562; 48 h): 16.2 µM; GI50 [6]: 11.2 µM; GI50 ([11]; 48 h): 23.8 µM; GI50 ([15]; 48 h): 12.4 µM; GI50 ([14]; 48 h): 25.6 µM |
| – | – | – | – | – | – | – | – | – | – | – | 130 | 105 | – | – | – | – | CC#Cc1ccc(C(=O)NC)cc1[N+](=O)[O-] [Compound I-26, N-methyl-4-(1-propynyl)-3-nitrobenzamide] | – | have inhibitory effects on tumor cell proliferation | – | – |
| 10.9 | 5.84 | 5.97 | 9.27 | – | 15.3 | – | – | 14 | 3.06 | – | – | – | 18.1 | – | 10.3 | 10.3 | C#Cc1ccc(C(=O)N2CCNCC2)cc1[N+](=O)[O-].Cl [Compound I-30, (4-ethynyl-3-nitrophenyl)(piperazin-1-yl)ketone hydrochloride] | slightly lower than that of I-1 | have inhibitory effects on tumor cell proliferation | 19.5 | – |

| Compound | GI50 ([1]; Homo sapiens, 95-D) [µM] | GI50 ([2]; Homo sapiens, DU-145, 48 h) [µM] | GI50 ([3]; Homo sapiens, MCF7, 48 h) [µM] | GI50 (human leukemia HL-60; Homo sapiens, HL-60, 48 h) [µM] | GI50 [4] [µM] | GI50 (human leukemia K562; Homo sapiens, K562, 48 h) [µM] | GI50 (human hepatoma HepG 2) [µM] | GI50 [5] [µM] | GI50 ([6]; Homo sapiens, HeLa) [µM] | GI50 [7] [µM] | GI50 [8] [µM] | GI50 [9] [µM] | GI50 [10] [µM] | GI50 ([11]; Homo sapiens, PANC-1, 48 h) [µM] | GI50 [12] [µM] | GI50 [13] [µM] | GI50 ([15]; Homo sapiens, HCT-116, 48 h) [µM] | efficacy in inhibition of tumor cell proliferation, graded in words against I-1 (18 tumor cell strains) | inhibitory effects on tumor cell proliferation (in words) (18 tumor cell strains) | GI50 ([14]; Homo sapiens, NCI-460, 48 h) [µM] | further results |
| --- | --- | --- | --- | --- | --- | --- | --- | --- | --- | --- | --- | --- | --- | --- | --- | --- | --- | --- | --- | --- | --- |
| C#Cc1ccc(C(=O)NC(=O)OCC(C)C)cc1[N+](=O)[O-] [Compound I-7, N-isobutoxycarbonyl-4-ethynyl-3-nitrobenzamide] | – | – | – | – | 3.15 | 10.1 | – | – | – | 9.67 | – | – | – | – | – | – | – | good effects on inhibition of tumor cell proliferation | have inhibitory effects on tumor cell proliferation | – | – |
